# Measured values published in paper PMC11002876, “KcsA-Kv1.x chimeras with complete ligand-binding sites provide improved predictivity for screening selective Kv1.x blockers” (The Journal of Biological Chemistry, 2024).
# Where a SMILES comes first, the peptide text is derived from it.
# Molecular target: T1, KcsA-Kv1.3 T+F chimera (Streptomyces lividans, UniProt P0A334, A54D/A57S/G53D/G56T/I60S/L59F/L81M/Q58G/R52A/R64D/T61S/Y62I/Y82H)
# T1 construct: made in house; host or cells: E. coli C41(DE3) (pET45b)
# T1 sequence (P0A334 1-160 R52A/G53D/A54D/G56T/A57S/Q58G/L59F/I60S/T61S/Y62I/R64D/L81M/Y82H): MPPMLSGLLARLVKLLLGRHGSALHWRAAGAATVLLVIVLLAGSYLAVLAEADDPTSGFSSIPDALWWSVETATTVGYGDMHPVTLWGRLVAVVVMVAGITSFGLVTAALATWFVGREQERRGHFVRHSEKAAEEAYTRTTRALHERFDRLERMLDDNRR
# Assay: Phage ELISA-binding assay, KcsA-Kv1.3 T+F
# Set-up: species or system human Kv1.3 turret and filter in Streptomyces lividans KcsA
# Settings: toxin displayed on M13 phage, Fig. 6D
# Description: Phage display test solutions were prepared according to routine phage display protocols ([62]). Phosphorylated and annealed oligonucleotides encoding the peptide construct were ligated into linearized pAS62 phagemid vector (https://patents.google.com/patent/WO2022144560A1/en) at a vector/insert ratio of 1:3. The final phagemid construct harbored a signal sequence followed by the peptide of interest, a linker sequence ([…]), and the C-terminal part of the P3 coat protein (amino acids: 216-424 of NP_510891.1). Chemically competent XL1-Blue E. coli cells (2022249, Agilent) were transformed with the ligation product and then streaked onto ampicillin (100 μg/ml) containing LB/Amp plates and incubated for 16 h at 37 °C. A few clones were sequenced, and a single colony with confirmed target sequence was inoculated into 3 ml 2 YT medium supplemented with 100 μg/ml ampicillin and incubated at 37 °C until the culture reached midlog phase. The culture was infected with M13KO7 helper phage (N0315S, New England Biolabs) (phage/cell ratio 10:1) and was incubated for 30 min at 37 °C. The 3 ml culture was transferred into 200 ml 2YT medium, supplemented with 100 μg/ml ampicillin and 25 μg/ml kanamycin, and incubated overnight at 37 °C. The overnight cell culture (200 ml) was pelleted by centrifugation at 8000g for 10 min in 400 ml centrifuge tubes at 4 °C. […] The particle concentrations of phage solutions were determined using a NanoDrop One C (Thermo Fisher Scientific) spectrophotometer. The phage particle concentration was assessed according to the formula: (A268–A320) × 5 × 10^12 particles/ml ([62]). […]
# Phage stock solutions were diluted to working concentration with phage resuspension buffer supplemented with 2 mM DDM. […] Following blocking, the wells were washed 4× with washing buffer (300 μl TBS-Tween, 0.1% v/v) using a Wellwash Versa microplate washer (Thermo Fisher Scientific); then 50 μl phage solution (in TBS-BSA-Tween, 0.1% v/v, 2 mM DDM) at determined phage concentration was added to the wells and incubated for 1 h at room temperature on a horizontal shaker. […]
row,SMILES,rank order of phage binding to KcsA-Kv1.3 T+F
1,"CC[C@H](C)[C@@H]1NC(=O)CNC(=O)[C@H](Cc2ccccc2)NC(=O)[C@H](CCC(N)=O)NC(=O)[C@H](C)NC(=O)[C@H](CCCCN)NC(=O)[C@@H]2CSSC[C@@H](C(=O)N[C@@H](Cc3ccc(O)cc3)C(=O)N3CCC[C@H]3C(=O)N[C@@H](Cc3c[nH]cn3)C(=O)O)NC(=O)[C@H](CCCCN)NC(=O)[C@@H]3CSSC[C@H](NC(=O)[C@H](CCC(N)=O)NC(=O)[C@H](CCCCN)NC(=O)[C@@H]4CCCN4C(=O)[C@H](CO)NC(=O)[C@H]([C@@H](C)O)NC(=O)[C@@H](NC(=O)[C@H](CCCCN)NC(=O)[C@@H](NC(=O)[C@H](CC(=O)O)NC(=O)[C@@H](NC(=O)[C@@H](NC(=O)[C@@H](N)[C@@H](C)O)C(C)C)[C@@H](C)CC)C(C)C)CSSC[C@H](NC(=O)[C@H](CCCCN)NC(=O)[C@H](C)NC(=O)CNC(=O)[C@H](C)NC(=O)[C@H](CCCNC(=N)N)NC1=O)C(=O)N[C@@H](CCSC)C(=O)N[C@@H](CC(N)=O)C(=O)NCC(=O)N[C@@H](CCCCN)C(=O)N3)C(=O)N[C@@H](CC(C)C)C(=O)N1CCC[C@H]1C(=O)N1CCC[C@H]1C(=O)N2 [HgTx1, Hongotoxin-1] (HELM PEPTIDE1{T.V.I.D.V.K.C.T.S.P.K.Q.C.L.P.P.C.K.A.Q.F.G.I.R.A.G.A.K.C.M.N.G.K.C.K.C.Y.P.H}$PEPTIDE1,PEPTIDE1,7:R3-29:R3|PEPTIDE1,PEPTIDE1,13:R3-34:R3|PEPTIDE1,PEPTIDE1,17:R3-36:R3$$$V2.0; N-terminus and C-terminus assumed)",Vm24 > HgTx1 > KTX1
2,"CC[C@H](C)[C@H](NC(=O)[C@H](CCC(=O)O)NC(=O)[C@@H](NC(=O)CN)C(C)C)C(=O)N[C@@H](CC(N)=O)C(=O)N[C@H](C(=O)N[C@@H](CCCCN)C(=O)N[C@H]1CSSC[C@@H]2NC(=O)[C@H](CCCCN)NC(=O)CNC(=O)[C@H](Cc3ccccc3)NC(=O)[C@H](CCCNC(=N)N)NC(=O)[C@H](CCSC)NC(=O)CNC(=O)[C@H](C)NC(=O)[C@H](CC(=O)O)NC(=O)[C@H](CCCCN)NC(=O)[C@@H]3CSSC[C@@H](C(=O)N[C@H](C(=O)N4CCC[C@H]4C(=O)N[C@@H](CCCCN)C(=O)O)[C@@H](C)O)NC(=O)[C@H](Cc4c[nH]cn4)NC(=O)[C@H](CSSC[C@H](NC(=O)[C@H](CCC(N)=O)NC(=O)[C@@H]4CCCN4C(=O)[C@H](CO)NC(=O)CNC(=O)[C@H](CO)NC1=O)C(=O)N[C@@H](CC(C)C)C(=O)N[C@@H](CCCCN)C(=O)N1CCC[C@H]1C(=O)N3)NC(=O)[C@H](CCCCN)NC(=O)[C@H](CCCNC(=N)N)NC(=O)[C@H](CC(N)=O)NC(=O)[C@H](CCSC)NC2=O)C(C)C [KTX1, Kaliotoxin-1]",Vm24 > HgTx1 > KTX1
3,"CC[C@H](C)[C@H](NC(=O)[C@H](C)NC(=O)[C@H](C)NC(=O)[C@H](C)N)C(=O)N[C@@H](CO)C(=O)N[C@H]1CSSC[C@@H]2NC(=O)[C@H](CCCCN)NC(=O)CNC(=O)[C@H](CC(N)=O)NC(=O)[C@H](CCCCN)NC(=O)[C@@H]3CSSC[C@@H](C(N)=O)NC(=O)[C@H](Cc4ccc(O)cc4)NC(=O)[C@H](Cc4ccc(O)cc4)NC(=O)[C@@H]4CSSC[C@H](NC(=O)[C@H](CCCCN)NC(=O)[C@@H]5CCCN5C(=O)[C@@H]5CCCN5C(=O)[C@H](CSSC[C@H](NC(=O)[C@H](CCCCN)NC(=O)[C@H](CCCNC(=N)N)NC(=O)[C@H](CC(N)=O)NC(=O)[C@H](CCSC)NC2=O)C(=O)N[C@@H](CCCCN)C(=O)N4)NC(=O)[C@H](CCC(=O)O)NC(=O)[C@@H]2CCCN2C(=O)[C@H](CO)NC(=O)CNC(=O)[C@H](C(C)C)NC1=O)C(=O)N[C@@H](CCCNC(=N)N)C(=O)N[C@@H](C)C(=O)N[C@@H](CCC(N)=O)C(=O)NCC(=O)N3 [Vm24, Vm24 toxin]",Vm24 > HgTx1 > KTX1
